From patent publication US4762820A, “Therapeutic treatment for congestive heart failure” (Trustees of Boston University, priority 1986, dated 1988)
“And” between values parts separate entries of the source, which are not always exact repeats. Equal entries are not always repeated.

Assays:
[1] = system: arginine vasopressin; experiment: Change in mean arterial pressure after AVP injection in rats, before and after nasal administration of the selective antagonist; assay type: in vivo, Wistar rats
Method: On the day before experimental testing, each rat was placed under ether anesthesia, and the right iliac artery and the right external jugular vein were catherized with PE-50 tubing. On the day following surgery, with the animal remaining unrestrained, the mean arterial pressure was monitored via a Hewlett-Packard 1280C transducer and a 7702B Recorder.
A vasopressin injection was prepared by diluting commercially obtained Pitressin at 20 U/ml concentration with 5% dextrose in water (hereinafter "D5W") to yield a sterile 20 mU/ml final concentration. […] All intravenous injections of vasopressin were flushed through using an additional volume comprising 0.2-0.3 ml of D5W.
Each experimental animal was tested in two stages: initially, two 0.1 ml injections each containing 2.0 millipressor units of arginine vasopressin were given through the venous catheter over a ten minute period and the individual changes in mean arterial pressure recorded. This stage identified each of the test animals as being susceptible to the physiological effects of vasopressin. The second stage of the experiment comprised release of 0.1 ml containing 250 ug of the selective antagonist onto the nasal mucosae of the rat via a PE-50 catheter which had been inserted into one of the nostrils to a depth of about four millimeters. This administration of the antagonist as a nasal spray onto the mucosae of the nose was followed by repeated injection of 0.1 ml volumes, each containing 2.0 millipressor units of arginine vasopressin, at 10, 20, 30, 60, and 120 minutes after the administration of the selective antagonist. The change in mean arterial pressure was recorded at each of these intervals after each injection of the vasopressin.

[2] = system: arginine vasopressin; conditions: 0.5 mg i.v.; exogenous AVP 20 mU/kg; cited from earlier work

Molecule | mean change in arterial pressure ([1]; 2.0 millipressor units AVP i.v., mean of the three test animals) | Changes in Mean Arterial Pressure After AVP Injection Alone ([1]; individual rats, 2.0 millipressor units AVP i.v., no antagonist) | inhibition of the blood pressure response to exogenous arginine vasopressin [2] [%] | effect of repeated 2.0 mU vasopressin injection after nasal spraying ([1]; 250 ug nasal, for at least the two hours of the test) | Changes in Mean Arterial Pressure After Antagonist Adm. + AVP Injections, 10' ([1]; individual rats, 250 ug antagonist onto nasal mucosae, 2.0 mU AVP i.v. 10 min later) | Changes in Mean Arterial Pressure After Antagonist Adm. + AVP Injections, 20' ([1]; individual rats, 250 ug antagonist onto nasal mucosae, 2.0 mU AVP i.v. 20 min later) | Changes in Mean Arterial Pressure After Antagonist Adm. + AVP Injections, 30' ([1]; individual rats, 250 ug antagonist onto nasal mucosae, 2.0 mU AVP i.v. 30 min later) | Changes in Mean Arterial Pressure After Antagonist Adm. + AVP Injections, 60' ([1]; individual rats, 250 ug antagonist onto nasal mucosae, 2.0 mU AVP i.v. 60 min later) | Changes in Mean Arterial Pressure After Antagonist Adm. + AVP Injections, 120' ([1]; individual rats, 250 ug antagonist onto nasal mucosae, 2.0 mU AVP i.v. 120 min later)
NC(=O)CC[C@@H]1NC(=O)[C@H](Cc2ccccc2)NC(=O)[C@H](Cc2ccc(O)cc2)NC(=O)[C@@H](N)CSSC[C@@H](C(=O)N2CCC[C@H]2C(=O)N[C@@H](CCCN=C(N)N)C(=O)NCC(N)=O)NC(=O)[C@H](CC(N)=O)NC1=O [AVP, arginine vasopressin, reference compound] | about 35 mmHg | +37.5 mm Hg and +38.5 mm Hg and +29.0 mm Hg |  |  |  |  |  |  | 
[1-(β-mercapto-β,β-cyclopentamethylenepropionic acid), 2-(O-methyl)tyrosine]arginine vasopressin [AVP Antagonist] |  |  | 80 | no significant effect | 0 mm Hg and +5 mm Hg | 0 mm Hg and +5 mm Hg | 0 mm Hg and +5 mm Hg | 0 mm Hg and +5 mm Hg | 0 mm Hg and +5 mm Hg
